# “And” between values parts separate entries of the source, which are not always exact repeats. Equal values may be shown once. Read-outs that look alike come from different tables or passages of the source.
# How the values were obtained:
# H. pylori = settings: cited from earlier work
# Helicobacter pylori [1] = assay: microbe, parasite or virus in culture; settings: read-out: MIC of amoxycillin (no cobalt)
# Procedure: (§1) Solutions of metal salts were prepared by dilution of the metal salt, optionally together with the ligand, in ultra-high-purity water. The pH values were adjusted to 7 with concentrated sodium hydroxide. The solutions were γ irradiated for 20 to 30 minutes for sterilisation, and then diluted ten fold in the bacterial growth medium to be used.
# (§2) A gradient of concentration was obtained by two fold serial dilutions of the medium. The concentrations of metals were analysed by inductively coupled plasma spectrometry. Each dilution was inoculated with the different bacteria to be tested, by multi-point inoculating on the agar media, or suspending in the broth media.
# (§3) Media were incubated for Helicobacter pylori in a microaerobic atmosphere (gas jar containing a CampyGen® pack, 5% O2-10% CO2-85% N2 by volume) with constant shaking (orbital shaker, 140 rpm) at 37° C. for five days.
# (§4) The presence or absence of bacterial growth was reported within the concentration gradient and the minimum concentration of complex in the medium that inhibits totally the bacterial growth (MIC) was determined. The growth on an agar plate was detected by the presence of colonies, and by turbidity in the broth media. […] Helicobacter pylori growth was also confirmed by biochemical test on the catalase, urease and oxidase activity.
# Helicobacter pylori [2] = settings: Co 0 mg/l
# Procedure: as §1, §2, §3, §4
smiles,measurement,setting,value
"CC1(C)S[C@@H]2[C@H](NC(=O)[C@H](N)c3ccc(O)cc3)C(=O)N2[C@H]1C(=O)O [amoxycillin, reference compound]","MIC, strains that repeatedly showed higher MIC",H. pylori; H. pylori strains lacking one penicillin-binding protein,0.25 µg/mL and 0.5 µg/mL
same,"MIC, usual","H. pylori; H. pylori, usual strains",≤ 0.03 µg/mL
same,MIC,Helicobacter pylori [1],0.06 µg/mL
same,growth in the medium,Helicobacter pylori [2]; Ax 0.002 mg/l,+
same,growth in the medium,Helicobacter pylori [2]; Ax 0.004 mg/l,+
same,growth in the medium,Helicobacter pylori [2]; Ax 0.008 mg/l,+
same,growth in the medium,Helicobacter pylori [2]; Ax 0.015 mg/l,+
same,growth in the medium,Helicobacter pylori [2]; Ax 0.03 mg/l,+
same,growth in the medium,Helicobacter pylori [2]; Ax 0.06 mg/l,−
